Test results reported in paper PMC9317327, “Functional Characterization, Antimicrobial Effects, and Potential Antibacterial Mechanisms of NpHM4, a Derived Peptide of Nautilus pompilius Hemocyanin” (Marine Drugs, 2022).
In brackets after ≈: the same amount, converted by molar mass. Like-named read-outs stand apart in the source and are kept apart here. Each block holds one molecule with its values, some of them ahead of it. Where a SMILES comes first, the peptide text is derived from it.

Legend:
Format in all cases: cell-based
[1] = test system: Escherichia coli (DH5α)
Description: (§1) The antimicrobial activity of the peptides was determined against Gram-negative bacteria, including V. alginolyticus (A056), E. coli (DH5α), and V. parahaemolyticus (2013V-1174), which were obtained from the South China Sea Institute of Oceanology, Chinese Academy of Sciences. The activity was also tested against the Gram-positive bacteria S. aureus ATCC 25923 and B. subtilis ATCC 6051. To assess the antimicrobial activities of the peptides, bacterial cells were cultured to the logarithmic growth phase and then diluted to 10^6–1.5 × 10^7 CFU/mL with PBS (0.01 M, pH 7.2). Equal volumes of serially diluted peptides, with concentrations ranging from 30 to 450 μM in PBS, and bacteria suspension were mixed and incubated at room temperature for 2 h, respectively. Then, 6 μL of each serially diluted mixture was plated on sterile 12-well agar plates, followed by incubation for 11 to 12 h, and the colonies were assessed to determine the MICs and MBCs. The MICs were expressed (in µM) as an [a]–[b] concentration interval, where [a] is the highest peptide concentration at which bacteria were growing and [b] is the lowest concentration that caused 100% growth inhibition. Cultures without peptides were employed as controls. All the tests were performed in triplicate and repeated three times.

[2] = test system: Vibrio alginolyticus (A056)
Description: as §1

[3] = test system: Bacillus subtilis ATCC 6051; details: ATCC 6051, 2 h, pH 7.2
Description: as §1

[4] = test system: Vibrio parahaemolyticus 2013V-1174; details: 2 h, pH 7.2
Description: as §1

[5] = test system: Staphylococcus aureus ATCC 25923; details: ATCC 25923, 2 h, pH 7.2
Description: as §1

SMILES: CC[C@H](C)[C@H](NC(=O)CNC(=O)[C@H](Cc1c[nH]cn1)NC(=O)[C@H](CC(C)C)NC(=O)[C@H](CC(C)C)NC(=O)[C@H](Cc1ccccc1)NC(=O)CNC(=O)[C@H](C)NC(=O)[C@H](Cc1ccccc1)NC(=O)[C@@H](NC(=O)[C@@H](N)CCCNC(=N)N)C(C)C)C(=O)N[C@@H](CCCCN)C(=O)N[C@@H](CCCNC(=N)N)C(=O)N[C@@H](CO)C(=O)N[C@@H](C)C(=O)O [NpHN5] (H-RVFAGFLLHGIKRSA-OH)
MBC ([1]; E. coli DH5α, 2 h in PBS pH 7.2 at room temperature, plated 11 to 12 h, triplicate, repeated three times): 450 µM (≈ 752 µg/mL)
MIC ([1]; E. coli DH5α, peptide mixed with bacteria (10^6–1.5 × 10^7 CFU/mL) in PBS 0.01 M pH 7.2, 2 h room temperature, plated on agar 11 to 12 h, interval [a]–[b]: [a] highest concentration with growth, [b] lowest with 100% growth inhibition, triplicate, repeated three times): 200 to 450 µM
MIC ([2]; V. alginolyticus A056, 2 h in PBS pH 7.2 at room temperature, plated 11 to 12 h, interval [a]–[b]: [a] highest concentration with growth, [b] lowest with 100% growth inhibition, triplicate, repeated three times): 50 to 250 µM
MBC ([2]; V. alginolyticus A056, 2 h in PBS pH 7.2 at room temperature, plated 11 to 12 h, triplicate, repeated three times): 250 µM (≈ 418 µg/mL)

SMILES: CC[C@H](C)[C@H](NC(=O)CNC(=O)[C@H](Cc1c[nH]cn1)NC(=O)[C@H](CCCNC(=N)N)NC(=O)[C@H](CC(C)C)NC(=O)[C@H](Cc1ccccc1)NC(=O)CNC(=O)[C@H](C)NC(=O)[C@H](Cc1ccccc1)NC(=O)[C@@H](NC(=O)[C@@H](N)CCCNC(=N)N)C(C)C)C(=O)N[C@@H](CCCCN)C(=O)N[C@@H](CCCNC(=N)N)C(=O)N[C@@H](CO)C(=O)N[C@@H](C)C(=O)O [NpHM1] (H-RVFAGFLRHGIKRSA-OH)
MBC [3]: >60 µM
MIC [3]: >60 µM
MBC [4]: >60 µM
MIC [4]: 15 to 60 µM
MBC ([1]; DH5α, 2 h, pH 7.2): >60 µM
MIC ([1]; DH5α, 2 h, pH 7.2): 15 to 60 µM
MBC ([2]; 2 h, pH 7.2): >150 µM
MIC ([2]; 2 h, pH 7.2): 50 to 150 µM
MBC [5]: >60 µM
MIC [5]: >60 µM

SMILES: CC[C@H](C)[C@H](NC(=O)CNC(=O)[C@H](Cc1c[nH]cn1)NC(=O)[C@H](CC(C)C)NC(=O)[C@H](CC(C)C)NC(=O)[C@H](Cc1ccccc1)NC(=O)CNC(=O)[C@H](C)NC(=O)[C@H](Cc1ccccc1)NC(=O)[C@@H](NC(=O)[C@@H](N)CCCNC(=N)N)C(C)C)C(=O)N[C@@H](CCCCN)C(=O)N[C@@H](CCCNC(=N)N)C(=O)N[C@@H](CO)C(=O)N[C@@H](CCCNC(=N)N)C(=O)O [NpHM2] (H-RVFAGFLLHGIKRSR-OH)
MBC [4]: >60 µM
MIC [4]: 30 to 60 µM
MIC ([1]; DH5α, 2 h, pH 7.2): 30 to 60 µM
MBC ([2]; 2 h, pH 7.2): >75 µM
MIC ([2]; 2 h, pH 7.2): 70 to 150 µM

SMILES: CC[C@H](C)[C@H](NC(=O)CNC(=O)[C@H](Cc1c[nH]cn1)NC(=O)[C@H](CC(C)C)NC(=O)[C@H](CC(C)C)NC(=O)[C@H](Cc1ccccc1)NC(=O)CNC(=O)[C@H](C)NC(=O)[C@H](CCCNC(=N)N)NC(=O)[C@@H](NC(=O)[C@@H](N)CCCNC(=N)N)C(C)C)C(=O)N[C@@H](CCCCN)C(=O)N[C@@H](CCCNC(=N)N)C(=O)N[C@@H](CO)C(=O)N[C@@H](CCCNC(=N)N)C(=O)O [NpHM5] (H-RVRAGFLLHGIKRSR-OH)
MBC [3]: >50 µM
MIC [3]: >50 µM
MBC [4]: >70 µM
MIC [4]: 15 to 70 µM
MBC ([1]; DH5α, 2 h, pH 7.2): >50 µM
MIC ([1]; DH5α, 2 h, pH 7.2): >50 µM
MBC ([2]; 2 h, pH 7.2): >70 µM
MIC ([2]; 2 h, pH 7.2): 15 to 70 µM
MBC [5]: >50 µM
MIC [5]: >50 µM

SMILES: CC[C@H](C)[C@H](NC(=O)CNC(=O)[C@H](Cc1c[nH]cn1)NC(=O)[C@H](CCCNC(=N)N)NC(=O)[C@H](CC(C)C)NC(=O)[C@H](Cc1ccccc1)NC(=O)CNC(=O)[C@H](C)NC(=O)[C@H](CCCNC(=N)N)NC(=O)[C@@H](NC(=O)[C@@H](N)CCCNC(=N)N)C(C)C)C(=O)N[C@@H](CCCCN)C(=O)N[C@@H](CCCNC(=N)N)C(=O)N[C@@H](CO)C(=O)N[C@@H](C)C(=O)O [NpHM6] (H-RVRAGFLRHGIKRSA-OH)
MBC [3]: >50 µM
MIC [3]: >50 µM
MBC [4]: >60 µM
MIC [4]: 15 to 60 µM
MBC ([1]; DH5α, 2 h, pH 7.2): >50 µM
MIC ([1]; DH5α, 2 h, pH 7.2): >50 µM
MBC ([2]; 2 h, pH 7.2): >70 µM
MIC ([2]; 2 h, pH 7.2): >70 µM
MBC [5]: >50 µM
MIC [5]: >50 µM

SMILES: CC[C@H](C)[C@H](NC(=O)CNC(=O)[C@H](Cc1c[nH]cn1)NC(=O)[C@H](CC(C)C)NC(=O)[C@H](CC(C)C)NC(=O)[C@H](Cc1ccccc1)NC(=O)CNC(=O)[C@H](C)NC(=O)[C@H](CCCNC(=N)N)NC(=O)[C@@H](NC(=O)[C@@H](N)CCCNC(=N)N)C(C)C)C(=O)N[C@@H](CCCCN)C(=O)N[C@@H](CCCNC(=N)N)C(=O)N[C@@H](CO)C(=O)N[C@@H](C)C(=O)O [NpHM3] (H-RVRAGFLLHGIKRSA-OH)
MBC [3]: >60 µM
MIC [3]: >60 µM
MBC [4]: >60 µM
MIC [4]: 15 to 60 µM
MBC ([1]; DH5α, 2 h, pH 7.2): >60 µM
MIC ([1]; DH5α, 2 h, pH 7.2): 15 to 50 µM
MBC ([2]; 2 h, pH 7.2): >150 µM
MIC ([2]; 2 h, pH 7.2): 30 to 75 µM
MBC [5]: >60 µM
MIC [5]: >60 µM

Continued, in another order:

MIC ([1]; DH5α, 2 h, pH 7.2): 200 to 600 µM
MIC ([2]; 2 h, pH 7.2): 100 to 300 µM
SMILES: CC[C@H](C)[C@H](NC(=O)[C@H](CCCNC(=N)N)NC(=O)[C@@H](NC(=O)[C@H](CC(N)=O)NC(=O)[C@H](C)NC(=O)[C@H](CO)NC(=O)[C@H](C)NC(=O)[C@H](CCC(N)=O)NC(=O)[C@@H](NC(=O)CNC(=O)[C@H](Cc1c[nH]cn1)NC(=O)[C@H](CC(C)C)NC(=O)[C@H](CC(C)C)NC(=O)[C@H](Cc1ccccc1)NC(=O)CN)[C@@H](C)CC)C(C)C)C(=O)O [NpHN4] (H-GFLLHGIQASANVRI-OH)
MBC ([1]; DH5α, 2 h, pH 7.2): >600 µM
MBC ([2]; 2 h, pH 7.2): >300 µM

MIC ([1]; DH5α, 2 h, pH 7.2): 250 to 500 µM
MIC ([2]; 2 h, pH 7.2): 100 to 300 µM
SMILES: CC[C@H](C)[C@H](NC(=O)CNC(=O)[C@H](Cc1c[nH]cn1)NC(=O)[C@H](CC(C)C)NC(=O)[C@H](CC(C)C)NC(=O)[C@H](Cc1ccccc1)NC(=O)CNC(=O)[C@H](C)NC(=O)[C@H](Cc1ccccc1)NC(=O)[C@@H](NC(=O)[C@@H](N)CCCNC(=N)N)[C@@H](C)CC)C(=O)NCC(=O)N[C@@H](CCC(N)=O)C(=O)N[C@@H](CO)C(=O)N[C@@H](C)C(=O)O [NpHN6] (H-RIFAGFLLHGIGQSA-OH)
MBC ([1]; DH5α, 2 h, pH 7.2): >500 µM

MIC [3]: >150 µM
MIC ([1]; DH5α, 2 h, pH 7.2): >150 µM
MIC ([2]; 2 h, pH 7.2): >150 µM
MIC [5]: >150 µM
SMILES: CC[C@H](C)[C@H](NC(=O)CNC(=O)[C@H](Cc1c[nH]cn1)NC(=O)[C@H](CCCNC(=N)N)NC(=O)[C@H](CC(C)C)NC(=O)[C@H](Cc1ccccc1)NC(=O)CNC(=O)[C@H](C)NC(=O)[C@H](CCCNC(=N)N)NC(=O)[C@@H](NC(=O)[C@@H](N)CCCNC(=N)N)C(C)C)C(=O)N[C@@H](CCCCN)C(=O)N[C@@H](CCCNC(=N)N)C(=O)N[C@@H](CO)C(=O)N[C@@H](CCCNC(=N)N)C(=O)O [NpHM7] (H-RVRAGFLRHGIKRSR-OH)
MBC [3]: >150 µM
MBC [4]: >150 µM
MIC [4]: >150 µM
MBC ([1]; DH5α, 2 h, pH 7.2): >150 µM
MBC ([2]; 2 h, pH 7.2): >150 µM
MBC [5]: >150 µM

MIC ([1]; DH5α, 2 h, pH 7.2): 250 to 450 µM
MIC ([2]; 2 h, pH 7.2): 50 to 250 µM
SMILES: CC[C@H](C)[C@H](NC(=O)[C@H](CS)NC(=O)[C@H](CS)NC(=O)[C@H](C)NC(=O)[C@H](Cc1ccc(O)cc1)NC(=O)[C@H](CCCNC(=N)N)NC(=O)[C@H](Cc1c[nH]cn1)NC(=O)[C@H](CC(C)C)NC(=O)[C@H](C)NC(=O)[C@@H](N)CCCCN)C(=O)N[C@@H](Cc1c[nH]cn1)C(=O)NCC(=O)N[C@@H](CCSC)C(=O)N[C@@H](C)C(=O)N[C@H](C(=O)O)[C@@H](C)O [NpHN3] (H-KALHRYACCIHGMAT-OH)
MBC ([1]; DH5α, 2 h, pH 7.2): >450 µM
MBC ([2]; 2 h, pH 7.2): >250 µM

MIC ([1]; DH5α, 2 h, pH 7.2): 250 to 450 µM
MIC ([2]; 2 h, pH 7.2): 50 to 260 µM
SMILES: CSCC[C@H](NC(=O)[C@H](Cc1ccccc1)NC(=O)CNC(=O)[C@H](C)NC(=O)[C@H](Cc1ccccc1)NC(=O)[C@@H](N)C(C)C)C(=O)N[C@@H](CC(C)C)C(=O)N[C@@H](Cc1c[nH]cn1)C(=O)NCC(=O)N[C@@H](Cc1ccccc1)C(=O)N[C@@H](CCCCN)C(=O)N[C@@H](CCCCN)C(=O)N[C@@H](CO)C(=O)N[C@@H](C)C(=O)N[C@@H](CC(C)C)C(=O)N[C@H](C(=O)O)C(C)C [NpHN1] (H-VFAGFMLHGFKKSALV-OH)
MBC ([1]; DH5α, 2 h, pH 7.2): >450 µM
MBC ([2]; 2 h, pH 7.2): >260 µM

MIC ([1]; DH5α, 2 h, pH 7.2): 200 to 500 µM
MIC ([2]; 2 h, pH 7.2): 100 to 280 µM
SMILES: CC[C@H](C)[C@H](NC(=O)CNC(=O)[C@H](CO)NC(=O)[C@H](CC(C)C)NC(=O)[C@H](CCCNC(=N)N)NC(=O)[C@H](Cc1ccccc1)NC(=O)[C@H](CO)NC(=O)[C@H](C)NC(=O)[C@@H](N)Cc1ccccc1)C(=O)N[C@@H](Cc1c[nH]cn1)C(=O)N[C@H](C(=O)N[C@@H](CO)C(=O)N[C@@H](C)C(=O)N[C@@H](CC(N)=O)C(=O)N[C@H](C(=O)N[C@@H](CCCCN)C(=O)N[C@H](C(=O)N[C@@H](CC(C)C)C(=O)O)C(C)C)C(C)C)[C@@H](C)O [NpHN2] (H-FASFRLSGIHTSANVKVL-OH)
MBC ([1]; DH5α, 2 h, pH 7.2): >500 µM
MBC ([2]; 2 h, pH 7.2): >280 µM
